Patent US20140328940A1, “MODULATION OF AXON DEGENERATION” (Genentech, Inc., priority 2009, published 2014)
Entries after “also recorded” stand apart in the source; their conditions may differ.

Columns and labels:
[1] = system: dorsal spinal cord explants; assay: dorsal spinal cord (DSC) explant degeneration; format: cell-based; settings: 3.4 μM, 11.1 μM, 33.3 μM, and 100 μM
Excerpt: DSCs grow out axons over a period of days, but if they are not rescued with the addition of a survival factor, they will eventually degenerate.

[2] = peripheral neuropathy in patients treated with paclitaxel (adverse event analysis); format: in vivo, human; settings: combination with paclitaxel; first 400 patients enrolled; placebo+paclitaxel 26.4%; p=0.012 Fisher's exact
Excerpt: Tarceva® (erlotinib) is an EGFR kinase inhibitor. Treatment of patients with paclitaxel and other chemotherapeutic agents is known to lead to peripheral neuropathy (reviewed in Wilkes, Semin. Oncol. Nurs. 23(3):162-173, 2007).

[3] = toxin-induced degeneration of sympathetic neurons (MTT assay); format: cell-based; settings: Sprague-Dawley, rat, primary sympathetic neurons from cervical ganglia, 24 hour camptothecin, read-out: % viability (normalized)
Protocol: Sympathetic cervical ganglia were dissected from postnatal day 1 Sprague-Dawley rats (Charles River Labs) and collected in a dish containing Ultraculture media (Lonza) with 5% fetal bovine serum (Invitrogen). Ganglia were washed twice with serum-free Ultraculture media, and a final concentration of 0.1% trypsin (Worthington) was added and incubated with the tissue at 37° C. for 30 minutes. One percent DNase (Roche) solution in PBS was added to the ganglia and incubated at room temperature for 1-2 minutes. Ganglia were washed with Ultraculture and allowed to settle to the bottom of the tube. All wash media were removed and 1 mL plating media containing Ultraculture, 5% rat serum, 1% penicillin-streptomycin, 1% glutamax, 7 μM cytosine arabinoside (Sigma), and 50 ng/mL nerve growth factor (2.5S, Cedarlane Laboratory) was added to the tube. Ganglia were dissociated by trituration using a pipet (Rainin). The cell slurry was filtered over a […] cell strainer (Falcon) and cell number was counted. Sympathetic neurons were plated at a density of 5000-7500 cells/well (96-well dish), 200,000 cells/well (6-well plate), or 100,000 cells/well (8-well chamber slide) and grown for 4-5 days in 5% CO2 at 37° C. Every other day neurons were fed with fresh plating media containing 5-10 ng/mL NGF.
NGF withdrawal assays were performed as described in Example 14A. […]

[4] = system: ERK; assay: ERK activation by EGF in DRG cultures (Western blot); format: cell-based, mouse; settings: 100 μg/mL EGF; 30 minutes to 1 hour
Protocol: (§1) Dorsal Root Ganglia (DRG) immunoblots were prepared as follows. Primary cells used in the experiments were Charles River CD-1 E13 Dorsal Root Ganglia (DRG). The cells were maintained in N3/F12 (+25 ng/ml NGF) medium (Ham's F12 (23 ml), N3 supplement (1 ml), glucose (1 ml of 1 M glucose stock), 25 ng/ml Nerve Growth Factor 2.5 S, mouse (Roche 11362348001) in Ham's F12 (stock: 50 μg/ml-80° C.), which was filter-sterilized prior to use). The experiments also employed Triton lysis buffer (20 mM Tris pH 7.5, 150 mM NaCl, 0.1% Triton-X100, 100× Phosphatase inhibitor cocktail I (added fresh), 100× Phosphatase inhibitor cocktail II (added fresh), 1 tablet/10 ml Protease inhibitor tablet (added fresh)).
DRG explants were prepared on Day 0. […]
Immunoblotting was carried out by aspiration of media with a pipette tip, washing twice with ice-cold sterile PBS, and removal of all PBS using an aspirator with a pipette tip or kimwipes. […] Quantification was carried out by choosing a background method and standard bands that minimize negative/counter-intuitive values: i.e., top/bottom, right/left, user-defined (user-defined). […]
(§2) The goal of these experiments was to see if activation of EGFR by EGF would be sufficient to drive degeneration. […] To ensure that EGF is capable of activating EGFR/ErbBs in the neuronal cultures used in these assays, ERK activation was assessed (ERK is a downstream target of EGFR).

[5] = system: dorsal root ganglion neurons; assay: EGF addition to DRG neurons maintained in NGF: degeneration; format: cell-based, mouse; settings: 100 μg/mL EGF
Protocol: Experiments were carried out to assess the effects of activation of EGFR by ligands, including EGF.
as §1
DRG explants were prepared on Day 0. Embryo dissections were carried out in L15 medium (dissection tools were soaked in 70% isopropanol, and dishes were set up on ice: 10 cm dishes (4 embryos per dish) and one 6 cm dish for spinal cords). E13.5 spinal cords were extracted into DMEM+10% FBS. […]
as §2

[6] = system: DRGs; assay: G-protein/GPCR inhibitors in NGF withdrawal-induced degeneration in DRGs; format: cell-based, mouse; settings: 0.01 μg/mL, 0.1 μg/mL, or 1 μg/mL (FIG. 51)
Protocol: The assays described herein identified several inhibitors of G-proteins and G-protein coupled receptors (GPCRs) that decrease degeneration in neurons. Experiments were performed in DRGs to verify the role of G-proteins and GPCRs in degeneration pathways. The experimental protocols used in these experiments are the same as those described in Example 14. Pertussis toxin and SCH 202676 were purchased from Tocris Bioscience.

## C#Cc1cccc(Nc2ncnc3cc(OCCOC)c(OCCOC)cc23)c1 [Tarceva, N-(3-ethynylphenyl)-6,7-bis(2-methoxyethoxy)quinazolin-4-amine]
[1]
  degeneration in dorsal spinal cord explants: can delay; also recorded: blocks
[2]
  patients with peripheral neuropathy: 16.3 % of patients

## CC[C@@]1(O)C(=O)OCc2c1cc1n(c2=O)Cc2cc3ccccc3nc2-1 [camptothecin]
[3]
  viability at 24 h: 79%

## EGF: ErbB1 ligand added to DRG neurons
[4]
  ERK activity (phosphorylation of ERK, Western blot): increased
[5]
  induction of axon degeneration: does not cause degeneration

## Pertussis toxin
[6]
  degeneration in neurons following NGF withdrawal: decreases
